Experimental data reported in PMC10975012, “The Active Glucuronide Metabolite of the Brain Protectant IMM-H004 with Poor Blood–Brain Barrier Permeability Demonstrates a High Partition in the Rat Brain via Multiple Mechanisms” (Pharmaceutics, 2024).
Like-named read-outs stand apart in the source and are kept apart here.

Tested on: P-gp
Assay: Bidirectional transport in MDCKⅡ-MDR1 cell monolayers
Format: in vitro ADME
Details: dog
Protocol: To further validate the effect of P-gp on the transport of IMM-H004G or IMM-H004, MDCKⅡ-MDR1 cells were seeded onto polycarbonate membrane transwell inserts in 24-well plates and used for transport studies after 5 days or when the effective transepithelial electric resistance (TEER) values exceeded 300 Ω·cm^2. The monolayers were initially rinsed twice with HBSS. Subsequently, IMM-H004G or IMM-H004 (10 µmol/L) was added to either the apical or basolateral side of the monolayer. Aliquots of 50 µL were collected from the opposite compartment at various time points, covering a maximum duration of 120 min. Digoxin (5 μmol/L) was used as a positive substrate, while PSC833 (5 µmol/L) was used as an inhibitor in MDCKⅡ-MDR1 cells. The apparent permeability value (Papp) was calculated using the following equation:(2) Papp=dQ/dt/AC0 where dQ/dt is the slope of the cumulative transport amount over time during the study period. A is the base area of the insert, and C0 is the initial addition concentration.
The efflux ratio (ER) was calculated as follows:ER = Papp(B−A)/Papp(A−B) (3)

- efflux ratio at 120 min (MDCK-MDR1, with PSC833 5 µmol/L, MDCKⅡ-MDR1, PSC833 5 µmol/L, read-out: efflux ratio (ER) in the presence of PSC833): 1.41
- efflux ratio at 120 min (MDCK-MDR1, MDCKⅡ-MDR1, no inhibitor, IMM-H004 10 µmol/L, digoxin 5 μmol/L, read-out: efflux ratio (ER)): 21.1
Compound: C[C@H]1O[C@@H](O[C@H]2[C@@H](O)C[C@H](O[C@H]3[C@@H](O)C[C@H](O[C@H]4CC[C@@]5(C)[C@H](CC[C@@H]6[C@@H]5C[C@@H](O)[C@]5(C)[C@@H](C7=CC(=O)OC7)CC[C@]65O)C4)O[C@@H]3C)O[C@@H]2C)C[C@H](O)[C@@H]1O [digoxin, reference compound]
